Reference: US6258547A, “Nucleic acid encoding amp-activated protein kinase” (Zeneca Limited, priority 1993, dated 2001)

Legend:
[1] = test system: AMP-activated protein kinase (AMPK) purified from rat liver; conditions: cited from earlier work
[2] = target: T1, Saccharomyces cerevisiae SNF1 protein kinase, wild type (Saccharomyces cerevisiae, UniProt P06782+P12904); test: SAMS peptide phosphorylation assay in yeast extracts; format: biochemical; conditions: over a range of AMP concentrations; data not shown
T1 construct: We were able to detect kinase activity using this assay in wild type yeast extracts; endogenous in cells; host or cells: wild type Saccharomyces cerevisiae extract
T1 sequence (P06782 1-633): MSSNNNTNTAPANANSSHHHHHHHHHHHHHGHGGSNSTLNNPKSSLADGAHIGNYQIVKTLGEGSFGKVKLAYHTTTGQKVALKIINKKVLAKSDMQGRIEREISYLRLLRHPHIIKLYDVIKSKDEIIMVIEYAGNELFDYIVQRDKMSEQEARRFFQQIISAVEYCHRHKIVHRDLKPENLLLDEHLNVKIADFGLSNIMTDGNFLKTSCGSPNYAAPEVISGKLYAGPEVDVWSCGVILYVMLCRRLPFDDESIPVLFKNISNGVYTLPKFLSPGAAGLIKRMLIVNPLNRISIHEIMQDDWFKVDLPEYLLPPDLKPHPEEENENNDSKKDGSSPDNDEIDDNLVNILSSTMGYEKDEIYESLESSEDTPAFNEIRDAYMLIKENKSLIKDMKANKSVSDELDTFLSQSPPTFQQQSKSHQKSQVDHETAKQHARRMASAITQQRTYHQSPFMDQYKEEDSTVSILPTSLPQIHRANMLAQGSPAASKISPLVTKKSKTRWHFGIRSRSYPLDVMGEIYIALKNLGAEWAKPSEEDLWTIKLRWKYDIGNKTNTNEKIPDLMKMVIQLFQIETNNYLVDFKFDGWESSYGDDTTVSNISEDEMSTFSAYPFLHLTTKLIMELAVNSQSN
T1 sequence (P12904 1-322): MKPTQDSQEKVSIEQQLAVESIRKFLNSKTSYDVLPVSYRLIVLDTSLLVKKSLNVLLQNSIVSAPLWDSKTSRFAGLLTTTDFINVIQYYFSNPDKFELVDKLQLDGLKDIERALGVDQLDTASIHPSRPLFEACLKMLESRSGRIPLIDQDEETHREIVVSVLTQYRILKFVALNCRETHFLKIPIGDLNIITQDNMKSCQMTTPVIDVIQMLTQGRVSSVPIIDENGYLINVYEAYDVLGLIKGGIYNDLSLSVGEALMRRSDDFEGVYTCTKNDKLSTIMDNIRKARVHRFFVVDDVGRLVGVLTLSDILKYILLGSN
Source text: In Saccharomyces cerevisiae SNF1 protein kinase activity is essential for release of genes from glucose repression. […] The amino acid sequences of SNF1 and AMPK are 46% identical. We investigated whether SNF1 and AMPK shared any functional similarity in addition to their primary sequence homology. […] We believe that this polypeptide is likely to be involved in the regulation of mammalian AMPK in the same way that SNF4 regulates SNF1 function in yeast. […] The apparent Km of SAMS peptide for SNF1 (20 μM) was similar to that of the AMPK (data not shown).

[3] = test system: AMP-activated protein kinase (AMPK) partially purified from rat liver (DEAE-Sepharose fraction); format: biochemical; conditions: 200 µM

Nc1ncnc2c1ncn2[C@@H]1O[C@H](COP(=O)(O)O)[C@@H](O)[C@H]1O [AMP]
activation of AMPK by AMP [1]: approximately 5 fold
activation of SNF1 by AMP [2]: unable to detect any significant activation
stimulation of AMPK activity by AMP [3]: approximately 3 fold
